This note sets out measurements from ChEMBL document CHEMBL1201862, “PubChem BioAssay data set” (2004).

One may read the GI50 as the concentration giving 50% growth inhibition.

Holding throughout (experiment): DTP human tumour cell line panel, 48 h
Assay [1] concerns IGROV-1.
Assay [2] relates to NCI-H460.
Assay [3] has as its system U-251.
Assay [4] relates to SR.
Assay [5] has as its system SK-MEL-5.
Assay [6] deals with HCT-116.
Assay [7] concerns SF-268.
In assay [8] the test system is UO-31.
Assay [9] has as its system OVCAR-8.
The subject of assay [10] is RXF 393.
For assay [11], the system named is OVCAR-5.
Assay [12] has as its system SK-OV-3.
For assay [13], the system named is HT-29.
In assay [14] the test system is MDA-N.
In assay [15] the test system is SF-539.
Assay [16] deals with MOLT-4.
Assay [17] concerns NCI-H23.
Assay [18] concerns HL-60.
In assay [19] the test system is NCI-H226.

Each structure is given as a SMILES string.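 These data come from cells grown in 96-well plates and exposed to compound for 48 hours at five concentrations. GI50 marks 50% less growth.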 Activity calls are given as the source filed them. Cut-off read from the data, not from the text of the source: active = GI50 up to about 1.1 µM and inactive = higher.

As for `CC(C)=CCc1cc(C2COc3cc4c(c(O)c3C2=O)C=CC(C)(C)O4)c(O)cc1O` (stereo not drawn), the GI50 in assay [1] was 16.2 µM (inactive); in [2], 14.3 µM (inactive); in [3], 16 µM (inactive); in assay [4] it was 6.78 µM (inactive); in assay [5], 11.3 µM (inactive); in assay [6], 17.3 µM (inactive). Moreover, the GI50 in [7] was 13.2 µM (inactive); in assay [8], 12.8 µM (inactive); in assay [9], 21.5 µM (inactive); in assay [10], 6.59 µM (inactive); in assay [11], 15.6 µM (inactive); in [12], 15.7 µM (inactive). The GI50 is 16.6 µM (inactive) in assay [13]; 14.4 µM (inactive) in [14]; 16.5 µM (inactive) in assay [15]; 5.61 µM (inactive) in assay [16]; 15.6 µM (inactive) in [17]; 8.63 µM (inactive) in assay [18].
`COC(=O)C1C(=O)CC(C)(O)C(C(=O)OC)C1c1ccc(N(C)C)cc1` (stereo not drawn): the GI50 is > 100 µM (inactive) in [1]; > 100 µM (inactive) in [2]; > 100 µM (inactive) in [3]; > 100 µM (inactive) in assay [4]; > 100 µM (inactive) in assay [5]; 8.67 µM (inactive) in assay [6]. In addition, the GI50 in assay [7], in assay [8], in assay [9], in assay [19], in assay [10] and in assay [11] was > 100 µM (inactive) each time. For the same molecule, the GI50 in assay [13], in assay [14], in [16], in assay [17] and in assay [18] was > 100 µM (inactive) in each case.
Consider `O=c1[nH]c(=O)n(C2CC(O)C(CO)O2)c2nc3ccc4cc5ccccc5cc4c3nc12` (stereo not drawn), for which the GI50 in assay [1] was > 100 µM (inactive); in assay [3] it was > 100 µM (inactive); in assay [4] it was 69.5 µM (inactive); in assay [5], > 100 µM (inactive); in [6], > 100 µM (inactive); in assay [7], > 100 µM (inactive). Further, the GI50 in [8] is > 100 µM (inactive); in assay [9], > 100 µM (inactive); in assay [19] it was > 100 µM (inactive); in [10] it was > 100 µM (inactive); in assay [11], > 100 µM (inactive); in assay [12] it was 53.6 µM (inactive). Moreover, the GI50 in assay [13], in [14], in assay [15], in assay [16] and in [17] was > 100 µM (inactive) throughout.
For the molecule `CC(C)(C)OC(=O)N1NC(c2ccccc2)CC1c1ccccc1` (stereo not drawn), the GI50 in [2] is 30.4 µM (inactive); in assay [4], 27.2 µM (inactive); in assay [5] it was 19.6 µM (inactive); in assay [6] it was 29.7 µM (inactive); in assay [7] it was 65.2 µM (inactive); in assay [8], 15.7 µM (inactive). For the same molecule, the GI50 is 35.3 µM (inactive) in assay [9]; 29.1 µM (inactive) in assay [19]; 15.8 µM (inactive) in [10]; 28.4 µM (inactive) in [11]; 37.6 µM (inactive) in assay [12]; 26.7 µM (inactive) in [13]. In addition, the GI50 in assay [14] was 42.6 µM (inactive); in assay [15] it was 42.5 µM (inactive); in [16], 24.8 µM (inactive); in assay [17], 17.4 µM (inactive).
As for `O=C(O)CCNc1[nH]cnc2ncnc1-2`, the GI50 in [1], in assay [2], in assay [3], in assay [4], in assay [5] and in assay [6] was > 100 µM (inactive) throughout. Further, the GI50 in assay [7], in [8], in [9], in [19], in assay [10] and in assay [11] was > 100 µM (inactive) each time. Besides, the GI50 in assay [12], in [13], in assay [14], in assay [17] and in assay [18] was > 100 µM (inactive) each time.
With `CCCCCC(/C=N/NC(N)=S)C(O)(C(F)(F)F)C(F)(F)F` (stereo not drawn), the GI50 in [1], in assay [2], in assay [3], in assay [4], in assay [5] and in [6] was > 10 µM (inactive) in each case. Besides, the GI50 in assay [7], in assay [9], in assay [19], in [10], in assay [11] and in assay [12] was > 10 µM (inactive) each time. For the same molecule, the GI50 in [13], in assay [14], in assay [15], in assay [16] and in [17] was > 10 µM (inactive) in each case.
Consider `O=C(CSc1nc2nncc-2c(O)[nH]1)c1ccc(Cl)cc1`, for which the GI50 in [1], in assay [2], in assay [3], in assay [4], in [5] and in [6] was > 100 µM (inactive) throughout. Besides, the GI50 in assay [7], in assay [8], in assay [9], in assay [19], in assay [10] and in assay [11] was > 100 µM (inactive) throughout. Besides, the GI50 in [12], in assay [13], in [14], in [15], in assay [16] and in assay [17] was > 100 µM (inactive) throughout.
Regarding `C=CCNC1=C2C[C@@H](C)C[C@@H](OC)[C@H](OC(=O)CCN(C)C)[C@H](C)/C=C(\C)[C@@H](OC(N)=O)[C@H](OC)/C=C\C=C(/C)C(=O)NC(=CC1=O)C2=O`, the GI50 in [1] is 0.13 µM (active); in assay [2], 0.0627 µM (active); in [3], 0.203 µM (active); in assay [4], 0.0204 µM (active); in assay [5], 0.0508 µM (active); in assay [6], 0.134 µM (active). Also, the GI50 in assay [7] is 1.35 µM (inactive); in assay [8], 0.822 µM (active); in assay [9], 0.324 µM (active); in assay [10] it was 0.182 µM (active); in [11], 2.18 µM (inactive); in [12], 0.0327 µM (active). Moreover, the GI50 in [13] was < 0.01 µM (active); in assay [14], 0.0386 µM (active); in assay [15], 0.0562 µM (active); in assay [16], 1.53 µM (inactive); in assay [17] it was 0.0547 µM (active); in [18] it was 0.362 µM (active).
